# Data reported in patent US20170073690A1, “ANTAGONISTS OF SLC38A9 AND THEIR USE IN THERAPY” (CEMM - Forschungzentrum Fuer Molekulare Medizin GMBH, priority 2014, published 2017).
# Columns and labels:
# [1] = target: T1, recombinant human SLC38A9 (Homo sapiens, UniProt Q8NBW4); assay: inhibition of [3H]-glutamine uptake in SLC38A9 proteoliposomes; type: biochemical; conditions: for competition for glutamine transport (inhibition of [3H]-glutamine uptake): added together with 10 μM [3H]-glutamine, transport at 60 min, MeAIB 1 mM, FIG. 3D, FIG. 10B; for transport capacity of SLC38A9 for amino acids (transport preference): inferred from binding preference, FIG. 3d; for binding capacity of SLC38A9 for amino acids (binding preference): ranking read from FIG. 3d
# T1 construct: made in house; host or cells: E. coli Lemo21(DE3)pLysS
# T1 sequence (Q8NBW4 1-561): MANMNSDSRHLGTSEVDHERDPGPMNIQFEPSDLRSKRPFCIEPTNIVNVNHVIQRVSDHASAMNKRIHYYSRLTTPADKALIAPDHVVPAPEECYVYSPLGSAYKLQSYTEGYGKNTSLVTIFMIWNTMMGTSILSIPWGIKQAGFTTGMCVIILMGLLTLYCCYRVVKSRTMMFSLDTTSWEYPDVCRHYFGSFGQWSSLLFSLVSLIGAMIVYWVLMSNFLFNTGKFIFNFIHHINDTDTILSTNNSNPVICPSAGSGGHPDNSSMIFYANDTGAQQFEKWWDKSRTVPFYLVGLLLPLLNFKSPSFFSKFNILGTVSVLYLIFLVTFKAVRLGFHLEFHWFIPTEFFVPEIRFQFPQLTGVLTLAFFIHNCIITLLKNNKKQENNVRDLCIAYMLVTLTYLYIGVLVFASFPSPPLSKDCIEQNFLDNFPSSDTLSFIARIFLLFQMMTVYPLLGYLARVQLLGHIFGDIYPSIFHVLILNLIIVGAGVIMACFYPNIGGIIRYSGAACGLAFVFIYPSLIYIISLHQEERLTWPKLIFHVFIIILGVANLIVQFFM
# Description: (§1) a, Orientation of SLC38A9 in proteoliposomes. After purification on Ni-chelating chromatography His-SLC38A9 was incubated overnight at 37° C. in absence or in presence of 1 U thrombin. Immunoblot using anti-His or anti-SLC38A9 antibody. b, Proteoliposomes reconstituted with SLC38A9 were centrifuged, resuspended in isosmotic buffer, incubated overnight at 37° C. with 1 U thrombin, solubilized with SDS Immunoblot using anti-His or anti-SLC38A9 antibody. c, Time course of glutamine uptake by SLC38A9 in proteoliposomes reconstituted with purified SLC38A9 or with control empty vector protein. The uptake of 10 μM [^3H]-glutamine was measured at different time intervals. Transport was stopped as described in Materials and Methods. Values represent means of specific transport ±s.d. from 8 different experiments. Significance was estimated by Student's t test (*P<0.01 or **P<0.001). d, Inhibition of the [^3H]-glutamine uptake in proteoliposomes. The indicated amino acids were added together with 10 μM [^3H]-glutamine Transport was measured at 60 min Values represent means of percent residual activity with respect to control (without added inhibitor) ±s.d. from 3 independent experiments. Significance was estimated by Student's t test (*P<0.01 or **P<0.001). e, Time course of glutamine efflux from proteoliposomes reconstituted with purified SLC38A9. Proteoliposomes were incubated with external 10 μM [^3H]-glutamine After 120 min the residual external radioactivity was removed by gel-filtration and the time course of [^3H]-glutamine efflux was measured as for the uptake (see FIG. 3 c). Values represent means of specific transport ±s.d. from 3 different experiments. f and g. HEK293T cells were transfected with the indicated tagged RAGA (0 or RAGB (g) and RAGC constructs or empty vector (−). Anti-HA immunoprecipitates and cell extracts were treated with PNGase and analysed by immunoblot with the indicated antibodies. Mutations are the following: RAGA: Q66L and T21N; RAGB: Q99L and T54N; RAGC: S75N and Q120N
# a, Purification of SLC38A9. Lanes represent empty vector control and SLC38A9 expressed in E. coli and purified on Ni-chelating chromatography Immunoblot of the same fractions using anti-His antibody or anti-SLC38A9 are shown. b, Inhibition of the [^3H]-glutamine uptake in proteoliposomes. 1 mM MeAIB (α-(methylamino)isobutyric acid) was added together with 10 μM [^3H]-glutamine Transport was measured at 60 min. Values represent means of percent residual activity with respect to control (without added inhibitor) ±s.d. from 3 independent experiments. Significance was estimated by Student's t test (*P<0.01 or **P<0.001). c, Uptake of the indicated [3H]-labelled amino acids (10 μM) by SLC38A9 in proteoliposomes measured at 60 min. Values represent means of percent in respect to glutamine transport measured in the same experiment ±s.d. from three independent experiments. Significance was estimated by Student's t test (*P<0.01 or **P<0.001). d, Time course of glutamine uptake by SLC38A9 in proteoliposomes reconstituted with the purified protein fraction. The uptake of 10 μM [^3H]-glutamine was measured at different time intervals, in the presence of the indicated intraliposomal sodium concentrations. Transport was stopped as described in Materials and Methods and calculated by subtracting the radioactivity associated to proteoliposomes reconstituted with the empty vector fraction. Values represent means of specific transport ±s.d. from 3 different experiments. e, Effect of pH on the reconstituted SLC38A9. Reconstitution was performed as described in Materials and Methods except that 20 mM Hepes/Tris at the indicated pH was used. Transport was started by adding 10 μM [^3H]-glutamine in 20 mM Hepes/Tris buffer at the indicated pH to proteoliposomes and stopped at 30 min. Results are means of specific transport rate ±s.d. from 3 different experiments f-g HEK293T cells were starved in medium without amino acids and serum for the indicated times. […]
# [2] = target: T1, recombinant human SLC38A9; assay: uptake and efflux of [3H]-labelled amino acids by SLC38A9 in proteoliposomes; type: biochemical; conditions: for direct transport of [3H]-labelled amino acid by SLC38A9: 10 μM labelled amino acid, 60 min, relative to glutamine transport, FIG. 10C
# Description: as §1, with “Values represent means of specific transport ±s.d. from 3 different experiments. f and g.” left out
# a, Purification of SLC38A9. […] 1 mM MeAIB (α-(methylamino)isobutyric acid) was added together with 10 μM [^3H]-glutamine Transport was measured at 60 min. […] Significance was estimated by Student's t test (*P<0.01 or **P<0.001). c, Uptake of the indicated [3H]-labelled amino acids (10 μM) by SLC38A9 in proteoliposomes measured at 60 min. Values represent means of percent in respect to glutamine transport measured in the same experiment ±s.d. from three independent experiments. […] The uptake of 10 μM [^3H]-glutamine was measured at different time intervals, in the presence of the indicated intraliposomal sodium concentrations. Transport was stopped as described in Materials and Methods and calculated by subtracting the radioactivity associated to proteoliposomes reconstituted with the empty vector fraction. […]
# [3] = test system: mTORC1; assay: cycloheximide-induced mTORC1 activation in HEK293T (immunoblot); type: cell-based, human; conditions: shRNA, starved 50 min, cycloheximide 25 μg/ml 10 or 20 min, FIG. 4B
# Description: After 72 h, cells were treated as in a.d, HeLa were transfected with the indicated siRNA. […] Cell lysates were analysed by immunoblot with antibodies against phosphorylated threonine 389 S6 kinase, phosphorylated S6 and total S6 kinase e, Model of Sentor/SLC38A9 as part of the lysosomal amino acid-sensing machinery
# (§2) […]. HEK293T cells were co-transfected with packaging plasmids and the shRNA-encoding plasmids. Cells were washed 16 h after transfection. Virus-containing supernatants were collected 24 h after washing, filtered and used for infection. After infection, HEK293T cells were selected with puromycin (4 μg/ml). For siRNA-mediated knockdown, HEK293T cells were transfected with HiPerfect (Qiagen) with 60 nM of siRNA pool. After 72 h cells were subjected to amino acid stimulation as described. ON-TARGETplus SMARTpool against SLC38A9 (L-007337-02-0005, Target sequences: […] (SEQ ID NO: 77), […] (SEQ ID NO: 78), […] (SEQ ID NO: 79), […] (SEQ ID NO: 80)), LAMTOR1 (L-020916-02-0010, Target sequences: […] (SEQ ID NO: 81), […] (SEQ ID NO: 82), […] (SEQ ID NO: 83), […] (SEQ ID NO: 84)) and Non-targeting pool (D-001810-10-05) were from ThermoScientific.
# HEK293T cells were washed with PBS and incubated in amino acid-free RPMI for 50 min Cell were then stimulated for 10 or 20 min by the addition of RPMI containing a two time concentrated solution of amino acids. […]
# [4] = test system: HEK293T cells; assay: cell size measurement (nucleus diameter, automated microscopy); type: cell-based, human; conditions: shRNA knockdown vs shGFP, nucleus diameter as proxy, FIG. 5C
# Description: (§3) a, Table of SLCs belonging to amino acid transporter families robustly expressed in HEK293 and K562 cells as monitored by RNAseq. SLC members of amino acid transporter-containing families^16 and expressed (FPKM>0.5) in both cell lines were ranked according to their expression level. […] Sparse and interphase cells were selected using image analysis and machine learning, and nucleus diameter (μm) was used as robust proxy for cell size^33. […] 10^5 cells were seeded and counted every 24 h. Mean values ±s.d. from triplicates e. HEK293 Flp-In TREx cells inducibly expressing SLC38A9 were treated or not with doxycycline (Dox) for 24 h. Where indicated, cell lysates were treated with PNGase (1 hour, 37° C.) and analysed by immunoblot (IB)
# Images were taken by automated microscopy using the PerkinElmer Operetta with 20× magnification in confocal mode. Images were analysed using CellProfiler (www at cellprofiler.org), CellClassifier (http at www.pelkmanslab.org/?page_id=63), Population Context measurement code (https at www.pelkmanslab.org/?page_id=1150) and custom Matlab code written specifically for this study. […] We used the typical nucleus diameter (i.e. the diameter of a circle with the same area as that measured for each nucleus) as a robust proxy for cell size^6. […]
# [5] = test system: mTORC1; assay: amino acid-induced mTORC1 activation in HEK293T (immunoblot of phosphorylated S6 kinase, S6, ULK1); type: cell-based, human; conditions: lentivirus-encoded shRNA vs shGFP, starved 50 min, amino acids 10 or 20 min, FIG. 4A
# Description: After 72 h, cells were treated as in a.d, HeLa were transfected with the indicated siRNA. After 72 h, cells were starved for 50 min in medium without amino acids and serum and then stimulated with amino acids and insulin (1 uM). Cell lysates were analysed by immunoblot with antibodies against phosphorylated threonine 389 S6 kinase, phosphorylated S6 and total S6 kinase e, Model of Sentor/SLC38A9 as part of the lysosomal amino acid-sensing machinery
# as §2, with “ThermoScientific. […]” for “ThermoScientific.”
# [6] = test system: HEK293T cells; assay: cell proliferation measurement (cell counting every 24 h); type: cell-based, human; conditions: shRNA knockdown vs shGFP, FIG. 5D
# Description: as §3
compound,measurement,setting,value
"CNC(C)(C)C(=O)O [MeAIB, α-(methylamino)isobutyric acid]",competition for glutamine transport (inhibition of [3H]-glutamine uptake),[1],had not effect
"NC(=O)C[C@H](N)C(=O)O [[3H]asparagine, asparagine]",direct transport of [3H]-labelled amino acid by SLC38A9,[2],competence
C[C@H](N)C(=O)O [alanine],transport capacity of SLC38A9 for amino acids (transport preference),[1],lowest transport capacity
same,binding capacity of SLC38A9 for amino acids (binding preference),[1],lowest binding capacity
N=C(N)NCCC[C@H](N)C(=O)O [arginine],competition for glutamine transport (inhibition of [3H]-glutamine uptake),[1],low ability
same,direct transport of [3H]-labelled amino acid by SLC38A9,[2],competence
N[C@@H](CS)C(=O)O [cysteine],transport capacity of SLC38A9 for amino acids (transport preference),[1],highest transport capacity
same,binding capacity of SLC38A9 for amino acids (binding preference),[1],highest binding capacity
NC(=O)CC[C@H](N)C(=O)O [glutamine],transport capacity of SLC38A9 for amino acids (transport preference),[1],highest transport capacity
same,binding capacity of SLC38A9 for amino acids (binding preference),[1],highest binding capacity
same,initial rate of glutamine transport (uptake),"[2]; 10 μM glutamine, time course, proteoliposomes, 25° C., pH 6.5",0.42±0.10 nmol per mg of protein per minute
same,rate of [3H]-glutamine efflux from proteoliposomes,"[2]; loaded with external 10 μM [3H]-glutamine for 120 min, FIG. 3E",1.7 ± 0.30 nmol/min/mg
"CCGGGCCUUGACAACAGUUCUAUAUCUCGAGAUAUAGAACUGUUGUCAAGGCUUUUUUG (chemistry not given here; listed as Homo sapiens) [shRNA, shRNA-encoding pLKO.1 targeting SLC38A9 (ThermoFisher), lentivirally delivered; targets nt 1931-1951 of human SLC38A9 mRNA]",cycloheximide-induced mTORC1 activation,[3],impaired
same,cell size,[4],clear reduction
same,amino acid-induced mTORC1 activation,[5],strong reduction
same,ability of the targeted cells to proliferate,[6],impairment
